We go through one compound from US5462933A, “Modified bile acid conjugates, and their use as pharmaceuticals” (Hoechst Aktiengesellschaft, priority 1989, dated 1995).

The test has as its target T1, Na+-dependent bile acid transport system (Oryctolagus cuniculus, UniProt Q28727).
T1 construct: brush-border membrane vesicles from the ileum of rabbits; from tissue; host or cells: terminal ileum of male New Zealand rabbits, brush-border membrane vesicles
T1 sequence (Q28727 1-347): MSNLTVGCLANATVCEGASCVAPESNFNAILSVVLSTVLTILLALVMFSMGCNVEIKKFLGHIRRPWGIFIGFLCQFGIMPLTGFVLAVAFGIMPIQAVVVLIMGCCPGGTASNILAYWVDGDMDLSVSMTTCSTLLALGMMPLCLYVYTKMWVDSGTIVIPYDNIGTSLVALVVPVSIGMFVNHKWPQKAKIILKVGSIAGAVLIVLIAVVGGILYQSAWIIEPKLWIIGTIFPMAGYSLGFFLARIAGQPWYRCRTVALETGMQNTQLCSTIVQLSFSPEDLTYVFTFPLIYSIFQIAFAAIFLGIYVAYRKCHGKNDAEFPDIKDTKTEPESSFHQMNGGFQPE
Put plainly: Inhibition of Na+-dependent [3H]taurocholate absorption into brush-border membrane vesicles of the ileum. The test is classed as biochemical, rabbit. As to the method: The preparation of brush-border membrane vesicles from the intestinal cells of the small intestine was carried out using the so-called Mg^2+ precipitation method. Male New Zealand rabbits (2-2.5 kg body weight) were sacrificed by intravenous injection of 0.5 ml of T-61^R. The small intestine was removed and rinsed with ice-cold physiological saline solution. The terminal 3/10 of the small intestine (measured in the oral-rectal direction, i.e. the terminal ileum, which contains the active Na^+ -dependent bile acid transport system) were used for preparation of the brush-border membrane vesicles. The intestines were frozen at -80° C. under nitrogen in plastic bags. The frozen intestines were thawed in a water bath at 30° C. in order to prepare the membrane vesicles. The mucosa was scraped off and suspended in 60 ml of ice-cold 12 mM trys/HCl buffer (pH 7.1)/300 mM mannitol, 5 mM EGTA/10 mg/l of phenylmethylsulfonyl fluoride/1 mg/l of soybean trypsin inhibitor (32 U/mg)/0.5 mg/l of bovine lung trypsin inhibitor (193 U/mg)/5 mg/l of bacitracin. After diluting to 300 ml with ice-cold distilled water, the suspension was homogenized with ice-cooling for 3 minutes at 75% of maximum power using an Ultraturrax (18 rod, IKA Werk Staufen, Federal Republic of Germany). After addition of 3 ml of 1M MgCl2 solution (final concentration 10 mM), the homogenate was allowed to stand at 0° C. for exactly 1 minute. As a result of addition of Mg^2+, the cell membranes aggregate and precipitate with the exception of the brush-border membranes. After centrifugation at 3,000×g (5,000 rpm, SS-34 rotor) for 15 minutes, the precipitate is discarded and the supernatant which contains the brush-border membranes is centrifuged at 26,700×g (15,000 rpm, SS-34 rotor) for 30 minutes. The supernatant was discarded, and the precipitate was rehomogenized in 60 ml of 12 mM tris/HCl buffer (pH 7.1)/60 mM mannitol, 5 mM EGTA using a Potter Elvejhem homogenizer (Braun Melsungen, 900 rpm, 10 strokes). After addition of 0.1 ml of 1M MgCl2 solution and an incubation time of 15 minutes at 0° C., the mixture was again centrifuged at 3,000×g for 15 minutes. The supernatant was then again centrifuged at […] (15,000 rpm, SS-34 rotor) for 30 minutes. The precipitate was taken up in 30 ml of 10 mM tris/hepes buffer (pH 7.4)/300 mM mannitol and homogeneously resuspended by 20 strokes in a Potter Elvejhem homogenizer at 1,000 rpm. After centrifugation at 48,000×g (20,000 rpm, SS-34 rotor) for 30 minutes, the precipitate was taken up in 0.5 to 2 ml of tris/hepes buffer (pH 7.4)/280 mM mannitol (final concentration 20 mg/ml) and resuspended with the aid of a tuberculin syringe using a 27 gauge needle. The vesicles were either used immediately after preparation for transport investigations or stored at -196° C. in liquid nitrogen in 4 mg portions.
The absorption of substrates into brush-border membrane vesicles was determined by means of the so-called membrane filtration technique. 10 μl of the vesicle suspension (100 μg of protein) were pipetted on the wall of a polystyrene incubation tube (11×70 mm) as a drop which contained the incubation medium together with the corresponding ligands (90 μl ). […] The incubation medium was filtered through a polyvinylidene fluoride membrane filter (SYHV LO 4NS, 0.45 μm, 4 mm .phi., Millipore, Eschborn, Federal Republic of Germany). The transport measurement was begun by mixing the vesicles with the incubation medium. […] After the desired incubation time (customarily 1 min), the transport was stopped by addition of 1 ml of ice-cold stop solution (10 mM tris/hepes, (pH 7.4)/150 mM KCl). The resulting mixture was immediately filtered off with suction in a vacuum of 25 to 35 mbar through a membrane filter made of cellulose nitrate (ME 25, 0.45 μm, 25 mm diameter, Schleicher & Schuell, Dassell, Federal Republic of Germany). The filter was subsequently washed with 5 ml of ice-cold Stop solution.

Setting [1] is: Na+-dependent transport component, 50 μM taurocholate.

With `C[C@H](CCC(=O)NCCS(=O)(=O)O)[C@H]1CC[C@H]2[C@@H]3[C@H](O)C[C@@H]4C[C@@H](OCCNC(=O)CCCc5ccc(N(CCCl)CCCl)cc5)CC[C@]4(C)[C@H]3C[C@H](O)[C@]12C` [Example 67], it took 47.5 µM to reach half-maximal inhibition (IC50). Further, under setting [1], the IC25 (as a rule, the point of the concentration-response curve where the effect stands at 25%) was 24 µM and the concentration for an effect of 75% (IC75) (as a rule, the point of the concentration-response curve where the effect stands at 75%) turned out to be 270 µM.
